According to US5001118A, “Method for preventing senescence and increasing bone mass” (priority 1986, dated 1991):

Experiments:
[1] = Acute toxicity, oral administration; type: in vivo; details: mouse, in vivo, po
Description: (§1) A test solution was prepared by dissolving the present substance, 24R,25-(OH)2 -D3, in ethanol and again dissolving the resultant ethanol solution in triglyceride ester of a fatty acid of 8 to 10 carbon atoms so that the ethanol concentration is 2%. Then, the test solution was orally administered (p.o.) at a dose of 100 mg/kg to a test group of 10 ICR type male mice (each weighing 25±3 g). For two weeks, the mice were kept under observation for sign of toxication. […] They were then sacrificed and subjected to biochemical blood inspection, anatomical observation, and histopathological inspection.

ICR type male mice = test: Acute toxicity, oral administration; type: in vivo; details: 100 mg/kg p.o.
Description: as §1

ICR type mice [2] = test: Inspection of urine, daily oral administration; type: in vivo, mouse (ICR type); parameters: key: .dwnarw.: Decrease below control; →: No difference from control; .uparw.: Increase above control
Description: (§2) Solutions obtained by dissolving the present substance, 24R,25-(OH)2 -D3 in a prescribed concentration in triglyceride of a fatty acid of 8 to 10 carbon atoms containing 1% of ethanol were administered respectively, orally, forcedly and daily to three male-groups and three female-groups of ICR type mice 5 weeks old at dosages of 10, 100, and 1,000 μg/kg.day. The results are compared below with respect to the following items with those obtained of the male- and female-groups using only the solvent without the present substance.

[3] = Growth curves (body weight), daily oral administration; type: in vivo, mouse (ICR type); details: male and female ICR mice, 10, 100, and 1,000 μg/kg.day orally
Description: as §2

ICR type mice [4] = test: Histopathological inspection of internal organs (haematoxylin eosine); type: in vivo, mouse (ICR type); details: male and female ICR mice, 10, 100, and 1,000 μg/kg.day orally
Description: as §2
The following internal organs were fixed with 10% formalin, tinted with haematoxylin eosine dye, and subjected to histopathological inspection.
Brain, heart, lung, liver, kidney, adrenal gland, spleen, pancreas, thyroid gland, pituitary gland, thymus, mesentery lymphoglandia, testis, ovary, uterus, stomach, small intestines (jejunum, ileum, and duodenum), large intestines (colon and caecum), orb, submaxillary gland, urinary bladder, dorsal skin, muscle, sternum, sternal medulla, femur, and femoral medulla.

[5] = tested on: femurs and tibias of male Wister rats; test: Soft X-ray photographs: volumes of cortical bone and sponge bone; type: in vivo, rat (Wister); details: 400 μg/kg.day orally, 24 months, vs control
Description: Male Wister rats 4 weeks old were preliminarily kept for two weeks. For the subsequent 24 months, the present substance, 24R,25-(OH)2 -D3, was orally administered daily at a dosage of 400 μg/kg.day to the pre-bred rats. Then, the aged rats were sacrificed and their femurs and tibias were collected in the form with adhering flesh, and soft X-ray photographs thereof were taken with a camera (produced by Soflon Corp. and marketed under product code of "Model NST-1005"). By the obtained photographs the volumes of the cortical bone and the sponge bone were measured. Further, as to a part of the femurs the central portion in the direction of the major axis of the femurs was inspected with a microdensitometer thereby analyzing the picture of pattern of shade concentration to calculate the index by the conventional M.D. method. As regards the manner of administration, a modified feed was prepared by uniformly dispersing a prescribed amount of the present substance, 24R,25-(OH)2 -D3, in glycine and admixing the resultant dispersing mixture with a marketed feed (produced by Nippon Clea Co., Ltd. under product code of "CE-2") in such a ratio as to give a final glycine concentration of 0.5% by weight, and the modified feed was consumed by the rats. To the rats of the control group, the same marketed feed containing 0.5% by weight of glycine was given.

[6] = tested on: femurs of male Wister rats; test: Fracture test of femurs; type: in vivo, rat (Wister); details: rat femur, 40 μg/kg orally, 24 months; 20 kg-load cell; control 11.6 ± 2.2
Description: Male Wister rats 4 weeks old were preliminarily kept for 2 weeks. For the subsequent 24 months, the present substance, 24R,25-(OH)2 -D3, was orally administered to the pre-bred rats daily at a dosage of 40 μg/kg.day. Then, the aged rats were sacrificed and their femurs were collected and fractured with an instrument (produced by Iio Denki Co., Ltd. and marketed under trade name of "Rheodynacorder RDR-1500(D)") using a 20 kg-load cell, at a distance of 6.5 mm from the trochanter minor under the condition of a fulcrum interval of 13 mm to determine the power required for the fracture.
As regards the manner of administration, a modified feed was prepared by uniformly dispersing a prescribed amount of the present substance, 24R,25-(OH)2 -D3, in glycine and admixing the resultant dispersing mixture with a marketed feed (produced by Nippon Clea Co., Ltd. under product code of "CE-2") in such a manner as to give a final glycine concentration of 0.5% by weight and the modified feed was consumed by the rats. The administration dosage was calculated on the basis of the actual amount of the feed consumed by the rats.

C=C1CC[C@H](O)C/C1=C/C=C1\CCC[C@]2(C)[C@@H]([C@H](C)CC[C@@H](O)C(C)(C)O)CC[C@@H]12 [24R,25-(OH)2 -D3]
LD50 at 336 h [1]: ≥ 100 mg/kg | sign of abnormality (ICR type male mice; 10 ICR male mice, two weeks): no sign of abnormality | survival (ICR type male mice; 10 ICR male mice, two weeks): All of the mice survived | biochemical blood inspection, anatomical observation, and histopathological inspection vs control (ICR type male mice; ICR male mice, after two weeks): not different at all | Urine ketone body (ICR type mice [2]; female, 10 μg/kg): → | Urine occult blood (ICR type mice [2]; female, 10 μg/kg): → | Urine pH (ICR type mice [2]; female, 10 μg/kg): → | Urine protein (ICR type mice [2]; female, 10 μg/kg): → | Urine sugar (ICR type mice [2]; female, 10 μg/kg): → | Urobilinogen (ICR type mice [2]; female, 10 μg/kg): → | Urine ketone body (ICR type mice [2]; female, 100 μg/kg): → | Urine occult blood (ICR type mice [2]; female, 100 μg/kg): → | Urine pH (ICR type mice [2]; female, 100 μg/kg): → | Urine protein (ICR type mice [2]; female, 100 μg/kg): → | Urine sugar (ICR type mice [2]; female, 100 μg/kg): → | Urobilinogen (ICR type mice [2]; female, 100 μg/kg): → | Urine ketone body (ICR type mice [2]; female, 1000 μg/kg): → | Urine occult blood (ICR type mice [2]; female, 1000 μg/kg): → | Urine pH (ICR type mice [2]; female, 1000 μg/kg): → | Urine protein (ICR type mice [2]; female, 1000 μg/kg): → | Urine sugar (ICR type mice [2]; female, 1000 μg/kg): → | Urobilinogen (ICR type mice [2]; female, 1000 μg/kg): → | Urine ketone body (ICR type mice [2]; male, 10 μg/kg): → | Urine occult blood (ICR type mice [2]; male, 10 μg/kg): → | Urine pH (ICR type mice [2]; male, 10 μg/kg): → | Urine protein (ICR type mice [2]; male, 10 μg/kg): → | Urine sugar (ICR type mice [2]; male, 10 μg/kg): → | Urobilinogen (ICR type mice [2]; male, 10 μg/kg): → | Urine ketone body (ICR type mice [2]; male, 100 μg/kg): → | Urine occult blood (ICR type mice [2]; male, 100 μg/kg): → | Urine pH (ICR type mice [2]; male, 100 μg/kg): → | Urine protein (ICR type mice [2]; male, 100 μg/kg): → | Urine sugar (ICR type mice [2]; male, 100 μg/kg): → | Urobilinogen (ICR type mice [2]; male, 100 μg/kg): → | Urine ketone body (ICR type mice [2]; male, 1000 μg/kg): → | Urine occult blood (ICR type mice [2]; male, 1000 μg/kg): → | Urine pH (ICR type mice [2]; male, 1000 μg/kg): → | Urine protein (ICR type mice [2]; male, 1000 μg/kg): → | Urine sugar (ICR type mice [2]; male, 1000 μg/kg): → | Urobilinogen (ICR type mice [2]; male, 1000 μg/kg): → | change of body weight (growth curves) [3]: absence of a discernible difference | histopathological inspection of internal organs (ICR type mice [4]): no discernible abnormality | cortical bone width [5]: increase | lateral diameter, D [5]: increase | trabecula of the sponge bone at epiphysis [5]: increase | Power for fracture [6]: Out of scale, so large
